Laboratory results: US20220162552A1, “Nonviral Modification of T Cell Gene Expression” (Precision NanoSystems Inc., priority 2019, published 2022)

Tests used:
Type in all cases: cell-based
[1] = tested on: primary human T cells (live CD4+/CD8+ T cells); assay: eGFP mRNA LNP transfection of activated T cells on day 7, 2 μg mRNA per 500,000 cells, flow cytometry after 48 h; conditions: for activity of the lipid mix composition to transfect T cells by ionizable lipid (FIG. 10 upper): same ratios and materials, ionizable lipid varied; for MFI results by ionizable lipid: MC3 versus BOCHD-C3-DMA
Method: All reagents from StemCell Technologies unless otherwise stated. T cells were isolated from whole human peripheral blood using a negative selection isolation procedure (EasySep™ Human T Cell Isolation Kit). T cell activation and expansion was carried out using Immunocult™ Human CD3/CD28/CD2 Activator in ImmunoCult™ Human T Cell Expansion Media supplemented with recombinant human IL-2 (Peprotech Inc., Rocky Hill USA). T cells typically enter a logarithmic phase of growth 48-96 hours after activation, which phase is characterized by a period of rapid proliferation and metabolic activity for 24-72 hours followed by a plateau in the growth curve as the cells start to return to a quiescent state. As depicted in FIG. 1, T cells may be exposed to lipid nucleic acid before or during the log phase of growth (day 3), or after the log phase of growth (day 7).
We tested the compositions of new Lipid Mixes against standard Lipid Mix A (all with BOCHD-C3-DMA as IL unless otherwise stated) using the triple T cell activation protocol (Pan T cells were activated with trio activator comprising anti-CD3/CD28/CD2 antibody) in LNP-mediated mRNA delivery and expression in vitro.
LNP formulated EGFP mRNA (Trilink Biotechnologies, San Diego, Calif.) was added to 500,000 T cells in 1 mL of complete T cell media, with 1 μg/mL of Recombinant Human ApoE4 (“ApoE”) (Peprotech Inc.).
The volume of LNAP required to achieve the desired dose of mRNA was calculated based on the concentration of encapsulated mRNA as determined by modified Ribogreen™ assay. T cells were counted through Trypan blue (Sigma) exclusion and diluted to 500,000 cells/mL. Briefly, in a 12 well plate, 1 mL was aliquoted into each well. ApoE was added to a final concentration of 1 ug/mL in each well. Based upon the calculation in step 1, the required amount of mRNA LNP was added, in this case 2 μg, and the plate incubated for 48 hours.
Different lipid mix compositions were tested for their ability to induce transfection as measured by geometric mean fluorescence intensity of GFP expressed in T cells (as measured by flow cytometry).
Three isolations of T cells were taken from a single donor and divided into three groups: Pan T cells (all T cells), CD4+ T cells alone, and CD8+ T cells alone. At 48H following lipid particle mRNA exposure, the treated T cells were harvested by transferring the cell suspensions to pre-labeled 1.5 mL tubes and centrifuged 300×g at 4 degrees Celsius for 10 minutes. Supernatant was removed and the pellet resuspended in PBS. An amount of 0.5 ul of BD Horizon™ Fixable Viability Stain 575V™ (BD Biosciences) was added, and the mixture incubated in the dark for 10 minutes at RT. The cells were centrifuged again as before, then washed twice with 1 mL of Stain buffer (BSA, BD Pharminigen), and the washed pellet placed in 100 μl BSA. The following antibodies were added to each tube of treated cells in 2 μl volumes: anit-CD25, anti-CD8, anti-CD4, (PerCP-Cy 5.5 Mouse Anti Human CD25, BV786 Mouse Anti-Human CD8 Clone RPA-T8, and APC-Cy™ 7 Mouse Anti-Human CD4 Clone SK3, all from BD Pharmingen). For compensation purposes, in the GFP only sample and viability control, no antibody was added, while in the single stain compensation tubes, only one antibody was added.
The tubes were incubated at 4 degrees C. for 30 min, whereupon […] of stain buffer (BSA) was added, and the cells were centrifuged again. Cells were washed once with 1 mL of stain buffer and spun down again as in step 1. Cell pellets were resuspended in 1 mL of stain buffer and added to pre-labeled flow tubes with cell strainer caps (Corning Falcon).
Histogram Analysis of T Cell Populations was generated as follows: Flow cytometry was performed on the live primary human T cells. […] All LNP compositions contained BOCHD-C3-DMA as ionizable lipid (IL). […]

[2] = tested on: isolated primary human T cells; assay: eGFP mRNA LNP transfection of T cells, 125,000 cells per well format (day 3/4/7), flow cytometry; conditions: CT10 composition, six donors, day 7
Method: Isolation of primary T cells from human whole blood and activation/expansion was performed as in general procedures above. Isolated T cells were exposed to the formulated mRNA three days after activation; in the T cell growth curve, this time point corresponds to just before or at the log phase of growth. A dose of 125 ng of CleanCap™ EGFP (Trilink Biotechnologies, San Diego, Calif.) mRNA encapsulated in LNP (see details below) was added to about 125,000 T cells in 0.25 mL of complete T cell media, with 1 ug/mL of Recombinant Human ApoE4 (“ApoE”) (Peprotech Inc., Montreal, Canada).
The volume of LNP required for T cell treatment was calculated based upon Ribogreen™ assay results. T cells were counted through Trypan blue (Sigma) exclusion and diluted to 500,000 cells/mL. […]
Lipid mix compositions were tested for their ability to induce transfection, using flow cytometry to measure the geometric mean fluorescence intensity of eGFP. Shown in FIG. 11 A(i) to D(ii) are the transfection efficiencies (i) and mean fluorescence intensities (ii) of mRNA LNPs encoding eGFP in isolated primary human T cells under various conditions. […]
GFP expression in isolated primary human T cells mediated by mRNA-LNPs containing BOCHD-C3-DMA with CT10 composition at N/P 8 is shown in FIG. 16. Transfection efficiency, viability and GFP MFI measured by flow cytometry 48 hours after LNP addition. […]

primary human T cells = assay: EPO mRNA LNP delivery to T cells, Human Epo ELISA; conditions: CT10 LNPs, 48 h
Method: Reagents were acquired from Quantikine, Minneapolis, Minn. The assay was performed as directed on the Quantikine® IVD® ELISA Human Erythropoietin Immunoassay protocol REF DEP00 Package Insert. Briefly; primary human T cells were isolated from fresh whole blood using a negative selection protocol and activated using a triple activator. At 7 days post-activation, the cells were treated with mRNA LNPs encoding EPO at 2 μg mRNA per 500,000 cells and N/P 10. After 48 hours of treatment with mRNA LNPs, the T cells were harvested and lysed for cytosolic EPO and media supernatant was sampled for secreted EPO. Quantikine® Human Serum Controls were used.
Frozen human T cells, previously isolated from fresh human whole blood using a negative selection protocol, were thawed and activated using a triple activator as previously described. At seven days post-activation, T cells were dosed with CT10 formulated mRNA LNPs encoding recombinant human erythropoietin (EPO) determined by ELISA (R&D Systems) at 2 μg mRNA per 500,000 cells and N/P 10. After 48 hours of treatment with mRNA LNPs the T cells were harvested and lysed for cytosolic EPO and media supernatant was sampled for secreted EPO.

Structure (SMILES)	activity of the lipid mix composition to transfect T cells by ionizable lipid (FIG. 10 upper) [1]	MFI results by ionizable lipid [1]	donor to donor variability by ionizable lipid (FIG. 15) [2]	level of secreted EPO by ionizable lipid (primary human T cells)	T cell transfection by structural lipid (FIG. 8) ([1]; Lipid Mix CT22 ratios, structural lipid DOPE or DSPC, N/P 10)
CCCCC/C=C\C/C=C\CCCCCCCCC1(CCCCCCCC/C=C\C/C=C\CCCCC)OCC(CCN(C)C)O1 (stereo not drawn) [KC2, 2,2-dilinoleyl-4-(2-dimethylaminoethyl)-[1,3]-dioxolane, reference compound]	without affecting the activity of the lipid mix composition to transfect T cells	–	–	–	–
CCCCCC=CCC=CCCCCCCCCC(CCCCCCCCC=CCC=CCCCCC)OC(=O)CCCN(C)C (stereo not drawn) [MC3, heptatriaconta-6,9,28,31-tetraen-19-yl 4-(dimethylamino)butanoate, reference compound]	without affecting the activity of the lipid mix composition to transfect T cells	comparable	no substantial difference	–	–
CCCCCCCCC1CC1CCCCCCCCC(CCCCCCCCC1CC1CCCCCCCC)OC(=O)CCCN(C)C.Cl (stereo not drawn) [BOCHD-C3-DMA, 1,17-bis(2-octylcyclopropyl)heptadecan-9-yl 4-(dimethylamino) butanoate hydrochloride]	without affecting the activity of the lipid mix composition to transfect T cells	comparable	no substantial difference	higher level of secreted EPO than MC3 LNPs	–
CCCCCCCCCCCCCCCCCC(=O)OC[C@H](COP(=O)([O-])OCC[N+](C)(C)C)OC(=O)CCCCCCCCCCCCCCCCC [DSPC, distearoylphosphatidylcholine]	–	–	–	–	better than DOPE
